# According to patent publication US7833531B2, “Method for treating insulin sensitivity by long-acting GLP-1 receptor mimetibody agonists” (Centocor, Inc., priority 2006, dated 2010):
# Like-named read-outs stand apart in the source and are kept apart here. Where no end group is shown, it is not given here.
# Columns and labels:
# [1] = tested on: diabetic rats; conditions: cited from earlier work
# [2] = tested on: db/db mice; assay: Blood glucose lowering in db/db mice; assay type: in vivo; conditions: six week old db/db mice fasted two hours, intravenous; 0.5-4 hours post-dosing; MMB dose 100-fold lower than GLP-1 peptide dose
# Description: GLP-1 MMB Lowers Glucose Level in db/db Mice. […] Blood glucose was monitored 0.5, 1, 2, 3, and 4 hours post-dosing.
# [3] = cited from earlier work
# [4] = cited from earlier work; remark: listed apart in the source
# [5] = biological target: T1, GLP-1R (Rattus norvegicus, UniProt P32301); assay: cAMP assay in Rinm cells; assay type: cell-based; conditions: similar experiment
# T1 construct: endogenous in cells; host or cells: Rinm cells
# T1 sequence (P32301 22-463): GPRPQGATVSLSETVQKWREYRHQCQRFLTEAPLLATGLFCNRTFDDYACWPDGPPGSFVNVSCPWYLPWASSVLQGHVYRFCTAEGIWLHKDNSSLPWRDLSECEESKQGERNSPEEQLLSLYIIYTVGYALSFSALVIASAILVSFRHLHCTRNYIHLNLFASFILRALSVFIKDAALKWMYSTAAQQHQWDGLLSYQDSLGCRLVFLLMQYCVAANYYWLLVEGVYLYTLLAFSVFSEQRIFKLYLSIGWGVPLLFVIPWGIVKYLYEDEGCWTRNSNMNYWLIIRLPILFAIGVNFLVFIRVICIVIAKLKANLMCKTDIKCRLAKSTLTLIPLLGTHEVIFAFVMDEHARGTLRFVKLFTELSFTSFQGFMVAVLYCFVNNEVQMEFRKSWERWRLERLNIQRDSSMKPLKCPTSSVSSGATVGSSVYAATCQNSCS
# Description: cAMP Assay. GLP-1 binds to its receptor, a G-protein coupled receptor, resulting in a dose-dependent increase in the signaling molecule, 3′,5′-cyclic AMP (cAMP). cAMP can be measured with an in vitro assay in cells expressing the GLP-1R (Applied Biosystems). […] The cells were lysed, and the amount of cAMP was determined using a competitive assay that employs an alkaline-phosphatase labeled cAMP conjugate and a chemiluminescent substrate (Tropix® CDPD®).
compound,measurement,setting,value
CC[C@H](C)[C@H](NC(=O)[C@H](Cc1ccccc1)NC(=O)[C@H](CCC(=O)O)NC(=O)[C@H](CCCCN)NC(=O)[C@H](C)NC(=O)[C@H](C)NC(=O)[C@H](CCC(N)=O)NC(=O)CNC(=O)[C@H](CCC(=O)O)NC(=O)[C@H](CC(C)C)NC(=O)[C@H](Cc1ccc(O)cc1)NC(=O)[C@H](CO)NC(=O)[C@H](CO)NC(=O)[C@@H](NC(=O)[C@H](CC(=O)O)NC(=O)[C@H](CO)NC(=O)[C@@H](NC(=O)[C@H](Cc1ccccc1)NC(=O)[C@@H](NC(=O)CNC(=O)[C@H](CCC(=O)O)NC(=O)[C@H](C)NC(=O)[C@@H](N)Cc1c[nH]cn1)[C@@H](C)O)[C@@H](C)O)C(C)C)C(=O)N[C@@H](C)C(=O)N[C@@H](Cc1c[nH]c2ccccc12)C(=O)N[C@@H](CC(C)C)C(=O)N[C@H](C(=O)N[C@@H](CCCCN)C(=O)NCC(=O)N[C@@H](CCCNC(=N)N)C(N)=O)C(C)C [GLP-1 peptide],insulin sensitivity,[1]; acute administration,not acute
same,insulin sensitivity,[1]; chronic administration,significant improvement in insulin sensitivity
same,blood glucose,[2],"lowered blood glucose at 30 minutes, but by 60 minutes, the blood glucose began to increase again"
"Byetta™: recently marketed GLP-1 analogue developed by Amylin and Eli Lilly, first identified in the saliva of the gila monster lizard",sustained decrease in body weight,[3]; during the course of the study,5-10 pounds
same,HbAlc levels lowered,[3]; following 82 weeks of treatment,approximately 1%
same,in vivo half life,[4],less than 30 minutes
GLP-1 (A2G) MMB in IgG4 scaffold: mimetibody with DPP-IV resistant GLP-1 variant GLP-1 (A2G) in IgG4 scaffold (HGEGTFTSDVSSYLEGQAAKEFIAWLVKGRG; also: in IgG4 mimetibody scaffold),cAMP levels in Rinm cells relative to wt GLP-1 MMB in IgG4 scaffold,[5],significantly higher level than wt GLP-1 MMB in IgG4 scaffold
GLP-1 (A2S) MMB in IgG4 scaffold: mimetibody with DPP-IV resistant GLP-1 variant GLP-1 (A2S) in IgG4 scaffold (HSEGTFTSDVSSYLEGQAAKEFIAWLVKGRG; also: in IgG4 mimetibody scaffold),cAMP levels in Rinm cells relative to wt GLP-1 MMB in IgG4 scaffold,[5],significantly higher level than wt GLP-1 MMB in IgG4 scaffold
